Publication doi:10.1101/2024.04.22.590490v1 (biorxiv, 2024)

Legend:
GSK-3β = GSK-3β (Homo sapiens, UniProt P49841); assay: ADP-Glo luminescent kinase assay; assay type: biochemical
GSK-3α = GSK-3α (Homo sapiens, UniProt P49840); assay: ADP-Glo luminescent kinase assay; assay type: biochemical
Chain of GSK-3α (P49840 2-483): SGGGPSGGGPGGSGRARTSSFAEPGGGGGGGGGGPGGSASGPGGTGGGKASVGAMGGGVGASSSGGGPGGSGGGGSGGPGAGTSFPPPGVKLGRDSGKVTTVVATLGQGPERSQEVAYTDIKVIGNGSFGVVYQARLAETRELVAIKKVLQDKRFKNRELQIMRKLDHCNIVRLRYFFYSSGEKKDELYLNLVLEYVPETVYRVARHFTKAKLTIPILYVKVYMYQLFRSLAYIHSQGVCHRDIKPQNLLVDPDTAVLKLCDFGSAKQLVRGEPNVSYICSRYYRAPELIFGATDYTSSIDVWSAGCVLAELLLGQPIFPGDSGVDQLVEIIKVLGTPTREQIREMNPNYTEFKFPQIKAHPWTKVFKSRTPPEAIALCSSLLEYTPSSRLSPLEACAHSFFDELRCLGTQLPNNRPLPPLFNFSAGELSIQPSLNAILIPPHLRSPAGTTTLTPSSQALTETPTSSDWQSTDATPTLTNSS

Chain of GSK-3β (P49841 whole entry): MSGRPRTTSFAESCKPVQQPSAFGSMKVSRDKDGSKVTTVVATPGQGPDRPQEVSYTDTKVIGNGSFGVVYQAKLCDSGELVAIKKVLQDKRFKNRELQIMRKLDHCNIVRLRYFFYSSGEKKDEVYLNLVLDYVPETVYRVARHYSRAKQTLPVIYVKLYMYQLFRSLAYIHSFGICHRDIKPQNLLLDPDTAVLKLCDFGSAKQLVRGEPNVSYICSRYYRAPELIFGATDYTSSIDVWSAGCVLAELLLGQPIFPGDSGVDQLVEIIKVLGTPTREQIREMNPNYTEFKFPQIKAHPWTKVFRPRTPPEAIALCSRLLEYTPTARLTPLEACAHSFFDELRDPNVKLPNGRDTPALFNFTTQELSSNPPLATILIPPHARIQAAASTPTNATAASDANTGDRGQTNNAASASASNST

Row | Structure (SMILES) | IC50 (GSK-3β) [µM] | IC50 (GSK-3α) [µM]
1 | CC(C)=CCc1cc2c(cc1O)oc(=O)c1c3ccc(O)cc3oc21 [Psoralidin] | 4.24 | 2.27
2 | O=C(/C=C/c1ccc(O)c(O)c1)O[C@H](Cc1ccc(O)c(O)c1)C(=O)O [Rosmarinic acid] | 2.25 | 5.14
